From patent publication US10870638B2, “Pyridazinone compound or its salt, and herbicide containing it” (ISHIHARA SANGYO KAISHA, LTD., priority 2016, dated 2020)

Key:
Assay in all cases: Test Example 1: foliar treatment, growth inhibition rate on 14th day
Type in all cases: in vivo
Details in all cases: active ingredient amount 31 g/ha, 14th day after application
[1] = tested on: barnyardgrass (Echinochloa crus-qalli L.)
Description: (§1) Upland field soil was put into a 1/300,000 hectare pot, and seeds of various plants were sown. When the respective plants reached predetermined leaf stage ((1) barnyardgrass (Echinochloa crus-[…].): 0.5 to 2.9 leaf stage, (2) crabgrass (Digitaria sanquinalis L.): 0.5 to 3.0 leaf stage, (3) green foxtail (Setaria viridis L.): 0.5 to 3.2 leaf stage, (4) wild oat (Avena fatua L.): 0.4 to 1.2 leaf stage, (5) italian ryegrass (Lolium multiflorum Lam.): 0.4 to 2.0 leaf stage, (6) redroot pigweed (Amaranthus retroflexus L.): cotyledon stage to 2.2 leaf stage, (7) rice (Oryza sativa L.): 0.2 to 2.7 leaf stage, (8) corn (Zea mays L.): 1.7 to 3.6 leaf stage, (9) wheat (Triticum aestivum L.): 1.3 to 2.3 leaf stage, (10) soybean (Glycine max Merr.); primary leaf stage), wettable powders or emulsifiable concentrates of the compounds of the present invention prepared in accordance with a conventional preparation method, were weighed so as to achieve the prescribed active ingredient amounts, and diluted with water in an amount corresponding to 1,000 liters per 1 hectare (containing 0.1 vol % of an agricultural spreader (surfactant WK manufactured by MARUWA BIOCHEMICAL Co., Ltd.)), and the spray solutions thus prepared were applied for foliar treatment by a small sprayer. On the 14th day after the application, the state of growth of the respective plants was visually observed, and the herbicidal effect was evaluated by a growth inhibition rate (%) of 0 (equivalent to the non-treated area) to 100 (complete kill).

[2] = tested on: corn (Zea mays L.)
Description: as §1

[3] = tested on: crabgrass (Digitaria sanquinalis L.)
Description: as §1

[4] = tested on: green foxtail (Setaria viridis L.)
Description: as §1

[5] = tested on: italian ryegrass (Lolium multiflorum Lam.)
Description: as §1

[6] = tested on: redroot pigweed (Amaranthus retroflexus L.)
Description: as §1

[7] = tested on: rice (Oryza sativa L.)
Description: as §1

[8] = tested on: soybean (Glycine max Merr.)
Description: as §1

[9] = tested on: wheat (Triticum aestivum L.)
Description: as §1

[10] = tested on: wild oat (Avena fatua L.)
Description: as §1

[11] = visual, 0 = non-treated, 100 = complete kill

Structure (SMILES) | Growth inhibition rate (%) Barnyardgrass [1] | Growth inhibition rate (%) Corn [2] | Growth inhibition rate (%) Crabgrass [3] | Growth inhibition rate (%) Green foxtail [4] | Growth inhibition rate (%) Italian ryegrass [5] | Growth inhibition rate (%) Redroot pigweed [6] | Growth inhibition rate (%) Rice [7] | Growth inhibition rate (%) Soybean [8] | Growth inhibition rate (%) Wheat [9] | Growth inhibition rate (%) Wild oat [10] | Growth inhibition rate (%) Barnyardgrass [1, 11] | Growth inhibition rate (%) Corn [2, 11] | Growth inhibition rate (%) Crabgrass [3, 11] | Growth inhibition rate (%) Green foxtail [4, 11] | Growth inhibition rate (%) Italian ryegrass [5, 11] | Growth inhibition rate (%) Redroot pigweed [6, 11] | Growth inhibition rate (%) Rice [7, 11] | Growth inhibition rate (%) Soybean [8, 11] | Growth inhibition rate (%) Wheat [9, 11] | Growth inhibition rate (%) Wild oat [10, 11]
CCc1nn(C)c(=O)c(-c2cc(Oc3nc4ccc(Cl)cc4o3)ccc2C)c1OC(C)=O [Compound 2-122] | 100% | 85% | 90% | 95% | 75% | 0% | 0% | 40% | 60% | 60% |  |  |  |  |  |  |  |  |  | 
Cc1ccc(Oc2cnc3cc(Cl)ccc3n2)cc1-c1c(OC(=S)Sc2ccccc2)c(C)nn(C)c1=O [Compound 3-63] |  |  |  |  |  |  |  |  |  |  | 100% | 40% | 98% | 100% | 90% | 0% | 0% | 0% | 83% | 98%
COC(=O)OC(C)Oc1c(C)nn(C)c(=O)c1-c1cc(Oc2ncc(C(F)(F)F)cc2Cl)c(C)cc1C (stereo not shown) [1-151] | 99% | 35% | 99% | 95% | 83% | 30% | 65% | 0% | 10% | 95% |  |  |  |  |  |  |  |  |  | 
CC(=O)Oc1c(C)nn(C)c(=O)c1-c1cc(N(C)c2ncc(C(F)(F)F)cc2Cl)ccc1C [1-145] | 93% | 40% | 90% | 70% | 20% | 0% | 0% | 35% | 50% | 40% |  |  |  |  |  |  |  |  |  | 
Cc1ccc(Oc2cnc3cc(Cl)ccc3n2)cc1-c1c(OC(=O)Cc2ccccc2)c(C)nn(C)c1=O [Compound 3-47] |  |  |  |  |  |  |  |  |  |  | 100% | 40% | 99% | 100% | 99% | 0% | 30% | 20% | 98% | 99%
COCCOCOc1c(C)nn(C)c(=O)c1-c1cc(Oc2cnc3cc(Cl)ccc3n2)ccc1C [Compound 3-75] |  |  |  |  |  |  |  |  |  |  | 99% | 10% | 95% | 99% | 98% | 0% | 0% | 0% | 95% | 98%
CC(=O)Oc1c(C)nn(C)c(=O)c1-c1cc(Oc2nc3ccc(C)cc3s2)ccc1C [Compound 2-152] | 85% | 0% | 20% | 85% | 35% | 0% | 78% | 0% | 75% | 0% |  |  |  |  |  |  |  |  |  | 
Cc1ccc(Oc2nc3cccc(Cl)c3o2)cc1-c1c(O)cnn(C)c1=O [Compound 2-185] | 93% | 10% | 85% | 88% | 0% | 0% | 0% | 20% | 0% | 0% |  |  |  |  |  |  |  |  |  | 
CC(=O)Oc1c(C)nn(C)c(=O)c1-c1cc(Oc2ncc(Cl)cc2C(F)(F)F)ccc1C [Compound 2-125] | 100% | 90% | 90% | 50% | 93% | 0% | 70% | 0% | 50% | 90% |  |  |  |  |  |  |  |  |  | 
COc1ccc2nc(Oc3ccc(C)c(-c4c(OC(C)=O)c(C)nn(C)c4=O)c3)sc2c1 [Compound 2-154] | 80% | 0% | 10% | 60% | 10% | 0% | 0% | 10% | 0% | 0% |  |  |  |  |  |  |  |  |  | 
CC(=O)Oc1c(C)nn(C)c(=O)c1-c1cc(Oc2ncc3cc(Br)ccc3n2)ccc1C [Compound 2-123] | 90% | 0% | 10% | 83% | 0% | 0% | 50% | 0% | 90% | 10% |  |  |  |  |  |  |  |  |  | 
Cc1ccc(Oc2ncc(C(F)(F)F)cc2Cl)cc1-c1c(OC(C)OC(=O)OC(C)C)c(C)nn(C)c1=O (stereo not shown) [1-133] | 88% | 0% | 0% | 30% | 0% | 0% | 0% | 0% | 0% | 40% |  |  |  |  |  |  |  |  |  | 
CC(=O)Oc1c(C)nn(C)c(=O)c1-c1cc(Nc2ncc(C(F)(F)F)cc2Cl)ccc1C [1-146] | 98% | 75% | 90% | 93% | 70% | 0% | 0% | 10% | 85% | 88% |  |  |  |  |  |  |  |  |  | 
